Test results taken from patent publication US20150111852A1, “1-Di(sec-butyl)-phosphinoyl-pentane (dapa-2-5) as a topical agent” (priority 2013, published 2015).

Experiments:
[1] = system: oral cavity and pharyngeal surfaces; experiment: Sensory activity of ODT-A on volunteers; type: in vivo, human; conditions: 6 to 8 trials per compound
Method: ODT-A was prepared by dissolving the DAPA compound in absolute ethanol, adding a 80% mannitol-20% maltitol mixture of equal weight and then adding an equal volume of distilled water. The mixture was the stirred with a glass rod, and dispensed onto a piece of wax or parchment paper with a disposable plastic pipette. The viscous liquid drop formed was then dried under a heat source for at least 4 hr. The nominal dose of the API in ODT-A ranged from 1 to 3 mg/tablet. The dried tablets weighed on average 150 mg each and when on the dorsal surface of the tongue, rapidly dissolved completely in saliva and coated the oropharyngeal surface. These tablets were suitable for initial pilot studies, but were not uniform in size, were friable, especially in conditions of high ambient humidity, and were not readily amenable to further analytical evaluation.
Sensory Qualities of ODT on the Oral Cavity and Pharyngeal Surfaces The DAPA ODT of Study 2 were evaluated for sensory properties on volunteers. The ODT-A results [see table] are from 6 to 8 trials per compound in several experienced individuals familiar with sensory properties of “cooling agents”. The results of ODT-A will be discussed together with ODT-B and ODT-C.

throat = experiment: Cold water test after ODT-A (cold discomfort); type: in vivo, human; design: key: If the subject felt “normal coolness” in the throat, the value was “0”; if the water felt “excessively cold” on the throat, it was rated as “+”; if there was “aching cold/discomfort” on the throat, the ranking was “++”; conditions: ODT-A on the tongue, ice water drunk 10 min later
Method: After application of ODT-A there were sensations associated with heat abstraction of various intensity and duration. Of particular note was the sensation of “icy or painful” cold was felt with some compounds, but the effect was variable. To isolate this sensation more precisely and reduce variability, ODT-A was placed on the tongue and 10 min later the subject was instructed to drink a mouthful of water previously equilibrated with ice chips. If the subject felt “normal coolness” in the throat, the value was “0”; if the water felt “excessively cold” on the throat, it was rated as “+”; and if there was “aching cold/discomfort” on the throat, the ranking was “++”. The term “cold discomfort” was applied compounds that produced “++”, and this phenomenon could now be reliably defined and identified with the cold water test.

mouth and throat = experiment: Sensory activity of ODT-C on volunteers (double-blind, modified ASHRAE scale); type: in vivo, human; conditions: for ODT-C test results (sensation and taste in words) / duration of cooling effect: 1.2 to 1.5 mg per ODT; for ODT-C test results (sensation and taste in words): 4 volunteers; for duration of cooling effect: ODT-C; for ASHRAE equivalent: peak heat abstraction sensation, modified ASHRAE scale neutral [0] to icy cold [-4]
Method: ODT-C. More experiments were conducted to find a smaller tablet, in the range of 40 to 60 mg, with a disintegration of <10 sec. These paraemters might achieve a better pharmacological effect. ODT-B was 100 mg in size and disintegrated in <20 sec. […] For example, to 1.5 g of DAPA-2-5 is added 1.5 g of absolute ethanol, followed by 2.0 g of Neusilin US2. The mixture is shaken or mixed in a Speedmixer at 500 rpm for 1 min. The sample is placed under a heat source and about 2 hr later, the sample size is re-weighed with the expectation that the ethanol has been evaporated and the sample now weights 3.5 g. This powder is free-flowing. • b. a sample of maltitol powder is prepared (Maltisorb® P200 from Roquette). • c. a sample of Prosolv® EasyTab is prepared (JRS Pharma, Rosenburg, Germany). • d. a blend of a. [2.80 g], b. [15.73 g] and c. [31.46 g] is prepared to make 1000 ODT tablets, each weighing 50 mg and containing 1.2 mg of DAPA-2-5. • e. the blend is first shaken by hand, then placed for 2 min in a SpeedMixer at 500 rpm. The blend is poured into the funnel of a New Single Punch Tablet Press Pill Making Machine Maker TDP-1-5 [available from Amazon.com] and the extruded tablets are collected.
ODT-C, described in Study 2, were tested for sensory properties on 4 volunteers, with at least 3 trials per compound and at 1.2 to 1.5 mg per ODT. The ODT was placed on the mid-line posterior dorsal surface of the tongue and sensory effects recorded for 30 min on a standardized form […]. The ODT were coded and administered on a double-blind basis. A modified ASHRAE scale of neutral, slightly cool [-1], cool [-2], cold [-3], and icy cold [-4] was used to rank the peak heat abstraction sensations in the mouth and throat. Other perceived effects, e.g. taste and duration, were also noted.

oropharynx [2] = experiment: Chili-pepper sauce irritation test; type: in vivo, human; design: key: If there was no suppression of the irritant/tickling sensations of the sauce, the value was “0”; if there was some suppression, the value was “+”; if there was complete suppression, then the value was “++.”; conditions: ODT, sauce applied 30 min later; 6 to 8 trials per compound
From the text: The “pain” component of inflammation includes irritation, itch, and discomfort and suppression of these endpoints is termed “anti-nociceptive”. To determine if a compound has anti-nociceptive activity, the Inventor has devised a modified capsaicin challenge method to evoke discomfort in the oropharyngx: the chili-pepper sauce irritation test. Chili-pepper sauce placed onto the posterior dorsal surface of the tongue evokes a tickling/irritant sensations in the oropharynx. The sensations associated with the chili pepper sauce are located in the back of the mouth and are clearly recognized and associated with irritation and a desire to clear the throat. In the chili-pepper sauce irritation test, the test compound is delivered using an ODT, as in Study 3, and 30 min later 0.2 to 0.25 mL of the sauce was applied onto the posterior dorsal surface of the tongue (with a syringe or a plastic stick). The chili pepper sauce used here is called Yank Sing® Chili Pepper Sauce (YS Gourmet Productions, Inc., PO Box 26189, San Francisco, Calif. 94126) and is a well-known condiment for use with dim sum (Chinese tea lunch). If there was no suppression of the irritant/tickling sensations of the sauce, the value was “0”; if there was some suppression, the value was “+”; and if there was complete suppression, then the value was “++.” For compounds that gave a ++ score, the irritative signals of the chili-pepper sauce are completely absent, yet the salty taste from the soy sauce of the condiment can still be readily tasted. A “++” result indicated suppression of the irritant effects of chili-pepper sauce. Numerical results are from 6 to 8 trials per compound.

[3] = biological target: T1, cloned hTRPM8 channel (encoded by the human TRPM8 gene, expressed in CHO cells) (Homo sapiens, UniProt Q7Z2W7); experiment: TRPM8 agonist FLIPR Fluo-8 calcium assay; type: cell-based; conditions: for EC50: CHO cells, Fluo-8, n=4 replicates
T1 construct: host or cells: CHO cells, stably transfected
T1 sequence (Q7Z2W7 whole entry): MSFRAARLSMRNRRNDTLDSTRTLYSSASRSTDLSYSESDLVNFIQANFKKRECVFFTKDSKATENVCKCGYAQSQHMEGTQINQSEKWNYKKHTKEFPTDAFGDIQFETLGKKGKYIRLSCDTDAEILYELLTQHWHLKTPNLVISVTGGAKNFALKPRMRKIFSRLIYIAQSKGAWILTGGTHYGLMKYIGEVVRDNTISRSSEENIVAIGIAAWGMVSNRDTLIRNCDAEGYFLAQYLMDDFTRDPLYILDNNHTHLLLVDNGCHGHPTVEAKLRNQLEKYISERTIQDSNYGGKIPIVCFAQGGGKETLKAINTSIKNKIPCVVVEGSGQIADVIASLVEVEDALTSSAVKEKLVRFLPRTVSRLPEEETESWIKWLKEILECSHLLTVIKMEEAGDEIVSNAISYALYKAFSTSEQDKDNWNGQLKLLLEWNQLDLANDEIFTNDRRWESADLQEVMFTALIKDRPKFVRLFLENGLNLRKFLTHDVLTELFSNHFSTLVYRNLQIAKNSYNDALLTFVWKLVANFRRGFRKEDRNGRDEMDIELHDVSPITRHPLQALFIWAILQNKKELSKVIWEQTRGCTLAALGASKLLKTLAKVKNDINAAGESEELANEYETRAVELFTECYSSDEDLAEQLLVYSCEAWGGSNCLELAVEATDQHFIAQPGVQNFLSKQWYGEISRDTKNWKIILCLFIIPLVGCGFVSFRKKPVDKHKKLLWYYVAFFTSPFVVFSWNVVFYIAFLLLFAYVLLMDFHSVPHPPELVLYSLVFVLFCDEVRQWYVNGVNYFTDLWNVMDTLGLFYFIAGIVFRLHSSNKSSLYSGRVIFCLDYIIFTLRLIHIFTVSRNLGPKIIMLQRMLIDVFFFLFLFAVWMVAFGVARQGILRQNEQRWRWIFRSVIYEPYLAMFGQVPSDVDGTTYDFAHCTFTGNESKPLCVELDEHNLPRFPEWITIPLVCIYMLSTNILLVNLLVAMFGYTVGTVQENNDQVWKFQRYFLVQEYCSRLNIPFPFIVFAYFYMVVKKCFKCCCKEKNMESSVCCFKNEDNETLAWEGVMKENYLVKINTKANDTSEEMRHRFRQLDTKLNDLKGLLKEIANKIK
Method: The in vitro effects of test compounds were evaluated on cloned hTRPM8 channel (encoded by the human TRPM8 gene, expressed in CHO cells) using a Fluo-8 calcium kit and a Fluorescence Imaging Plate Reader (FLIPR^TETRA™) instrument.
Test compounds and positive control solutions were prepared by diluting stock solutions in a HEPES-buffered physiological saline (HBPS) solution. The test compound and control formulations were loaded in polypropylene or glass-lined 384-well plates, and placed into the FLIPR instrument (Molecular Devices Corporation, Union City, Calif., USA). The test compounds were evaluated at 4 or 8 concentrations with n=4 replicates per determination. […] The test cells were Chinese Hamster Ovary (CHO) cells stably transfected with human TRPM8 cDNAs.
For the FLIPR^TETRA™ assay, cells were plated in 384-well black wall, flat clear-bottom microtiter plates (Type: BD Biocoat Poly-D-Lysine Multiwell Cell Culture Plate) at approximately 30,000 cells per well. Cells were incubated at 37° C. overnight to reach a near confluent monolayer appropriate for use in a fluorescence assay. The test procedure was to remove the growth media and to add 40 μL of HBPS containing Fluo-8 for 30 min at 37° C. 10 μL of test compound, vehicle, or control solutions in HBPS were added to each well and read for 4 min.
Concentration-response data were analyzed via the FLIPR Control software that is supplied with the FLIPR System (MDS-AT) and fitted to a Hill equation of the following form: […]
where: “Base” is the response at low concentrations of test compound; “Max” is the maximum response at high concentrations; “xhalf” is the EC50, the concentration of test compound producing half-maximal activation; and “rate” is the Hill coefficient. Nonlinear least squares fits were made assuming a simple one-to-one binding model.

oropharynx [4] = experiment: Sensory effects and cold discomfort of compounds given orally in ODT (general evaluation); type: in vivo, human; conditions: menthol at a dose of 2 mg in an ODT; icilin dose not given
Method: The correlation between a chemical's potency at the TRPM8 receptor (measured by the EC50 μM) and potency to evoke sensory events in the oropharynx is complex.
When a test compound is applied to non-keratinizng bodily surfaces (e.g., oropharyngeal surface), it is possible to characterize the resulting sensations.
The sensations are akin to rapid drinking of cold water mixed and equilibrated with ice chips. The intense cold is further accentuated if the drink is acidified, for example, with lemonade. The sensations of dull and intense cold on the surface of the oropharynx can be described as painful, uncomfortable, and aversive. The term “icy cold” is used to describe these adverse intense cold sensations.
Together, these three types of sensations—“icy cold”, coldness in the chest, and systemic coldness—is termed “cold discomfort”. […] The ideal agent must have a circumscribed site of action, and the intensity of the sensation should not cause “icy cold”, coldness in the chest, or systemic chills.

[5] = system: dorsal surface of the tongue; conditions: 6 subjects, filter paper 1×1 cm, 30 sec; cited from earlier work
ASIC3 (acid-sensing) = biological target: T2, ASIC3 (acid-sensing) (Homo sapiens, UniProt Q9UHC3); experiment: Patch-clamp in transfected cells, ASIC3; type: cell-based; conditions: DAPA-2-5 at 5 μM; positive control amiloride
T2 construct: expressed in transfected cells
T2 sequence (Q9UHC3 1-531): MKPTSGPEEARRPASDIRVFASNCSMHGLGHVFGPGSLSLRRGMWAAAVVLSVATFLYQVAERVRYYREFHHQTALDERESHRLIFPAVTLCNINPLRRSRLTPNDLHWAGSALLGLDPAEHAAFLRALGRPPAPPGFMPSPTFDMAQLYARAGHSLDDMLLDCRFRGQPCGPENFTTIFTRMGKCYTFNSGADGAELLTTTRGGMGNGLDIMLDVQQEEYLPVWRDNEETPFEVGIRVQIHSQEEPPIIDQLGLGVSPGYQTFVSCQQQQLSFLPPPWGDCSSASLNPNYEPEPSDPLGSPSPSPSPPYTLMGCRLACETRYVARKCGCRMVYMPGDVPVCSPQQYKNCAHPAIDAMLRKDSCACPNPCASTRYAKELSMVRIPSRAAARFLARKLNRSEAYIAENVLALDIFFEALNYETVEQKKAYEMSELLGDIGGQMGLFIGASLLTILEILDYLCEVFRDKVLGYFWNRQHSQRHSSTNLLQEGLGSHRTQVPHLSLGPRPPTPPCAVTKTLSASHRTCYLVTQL

[6] = biological target: T3, hNav1.7 (sodium channels) (Homo sapiens, UniProt Q15858); experiment: Patch-clamp in transfected cells, hNav1.7; type: cell-based; conditions: DAPA-2-5 at 5 μM; positive control lidocaine
T3 construct: expressed in transfected cells
T3 sequence (Q15858 whole entry): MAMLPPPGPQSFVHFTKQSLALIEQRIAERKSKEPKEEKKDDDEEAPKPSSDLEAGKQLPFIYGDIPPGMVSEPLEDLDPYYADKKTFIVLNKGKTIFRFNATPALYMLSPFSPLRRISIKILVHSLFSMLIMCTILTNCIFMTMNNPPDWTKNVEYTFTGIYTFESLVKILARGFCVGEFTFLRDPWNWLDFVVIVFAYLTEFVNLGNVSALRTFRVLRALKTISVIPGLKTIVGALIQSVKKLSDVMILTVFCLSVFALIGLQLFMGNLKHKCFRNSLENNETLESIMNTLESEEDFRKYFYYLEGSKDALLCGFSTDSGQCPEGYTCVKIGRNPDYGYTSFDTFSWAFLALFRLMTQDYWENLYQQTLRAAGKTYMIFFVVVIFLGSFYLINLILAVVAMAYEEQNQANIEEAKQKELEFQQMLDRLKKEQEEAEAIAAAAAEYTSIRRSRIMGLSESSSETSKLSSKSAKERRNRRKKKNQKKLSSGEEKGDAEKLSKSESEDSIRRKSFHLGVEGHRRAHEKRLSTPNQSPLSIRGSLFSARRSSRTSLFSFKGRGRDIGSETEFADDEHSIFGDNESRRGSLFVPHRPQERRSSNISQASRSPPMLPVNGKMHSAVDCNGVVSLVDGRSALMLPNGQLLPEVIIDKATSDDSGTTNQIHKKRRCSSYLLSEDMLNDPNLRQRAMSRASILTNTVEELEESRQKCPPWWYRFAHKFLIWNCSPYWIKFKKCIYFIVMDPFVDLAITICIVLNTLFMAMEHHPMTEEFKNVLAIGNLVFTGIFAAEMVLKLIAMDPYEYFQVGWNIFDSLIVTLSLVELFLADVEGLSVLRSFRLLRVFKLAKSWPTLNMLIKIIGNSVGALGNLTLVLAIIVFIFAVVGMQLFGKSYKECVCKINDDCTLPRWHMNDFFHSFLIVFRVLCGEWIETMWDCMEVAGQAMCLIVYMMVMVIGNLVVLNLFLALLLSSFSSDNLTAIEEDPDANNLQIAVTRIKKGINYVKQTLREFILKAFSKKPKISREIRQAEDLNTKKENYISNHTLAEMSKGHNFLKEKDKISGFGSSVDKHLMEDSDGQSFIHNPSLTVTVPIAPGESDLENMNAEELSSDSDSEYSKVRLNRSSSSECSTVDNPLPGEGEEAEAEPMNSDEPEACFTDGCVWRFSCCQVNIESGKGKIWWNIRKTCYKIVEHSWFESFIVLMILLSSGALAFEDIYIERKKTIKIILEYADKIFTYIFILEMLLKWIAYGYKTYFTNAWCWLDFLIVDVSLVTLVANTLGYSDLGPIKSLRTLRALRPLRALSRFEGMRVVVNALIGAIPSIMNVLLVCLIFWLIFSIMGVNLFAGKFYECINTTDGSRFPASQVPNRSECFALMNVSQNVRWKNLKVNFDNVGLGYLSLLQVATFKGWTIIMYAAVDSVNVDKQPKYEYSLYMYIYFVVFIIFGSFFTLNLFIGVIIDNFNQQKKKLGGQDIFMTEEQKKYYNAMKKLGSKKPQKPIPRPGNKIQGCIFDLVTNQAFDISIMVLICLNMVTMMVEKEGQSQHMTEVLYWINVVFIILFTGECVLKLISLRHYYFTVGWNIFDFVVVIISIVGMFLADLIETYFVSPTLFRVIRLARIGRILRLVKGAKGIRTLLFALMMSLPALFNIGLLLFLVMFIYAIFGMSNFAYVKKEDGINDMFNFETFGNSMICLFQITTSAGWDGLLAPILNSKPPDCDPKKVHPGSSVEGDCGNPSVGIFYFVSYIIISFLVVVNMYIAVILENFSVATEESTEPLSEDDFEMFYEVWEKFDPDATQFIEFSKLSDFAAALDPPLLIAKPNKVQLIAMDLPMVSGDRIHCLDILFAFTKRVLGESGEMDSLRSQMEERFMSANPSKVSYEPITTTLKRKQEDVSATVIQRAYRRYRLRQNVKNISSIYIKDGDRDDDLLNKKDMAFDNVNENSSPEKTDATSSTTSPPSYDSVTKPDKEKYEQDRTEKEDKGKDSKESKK

Row | Cold Discomfort (throat) | Relative Potency to L-menthol [3] | Compound | Duration [1] [min] | Onset [1] [min] | Sensory Quality [1] | ODT-C test results (sensation and taste in words) (mouth and throat) | duration of cooling effect (mouth and throat) [min] | ASHRAE equivalent (mouth and throat) | Chili test (oropharynx [2]) | further results
1 | 0 | 0.7 | CCCCCP(=O)(C(C)C)C(C)C [DAPA-1-5, 1-Di(isopropyl)-phosphinoyl-pentane] | 5 | 0.1 | cool | brief but intense cool | < 5 | −2.7 | ++ | –
2 | + | 5.4 | CCCCCCCCP(=O)(C(C)C)C(C)C [DAPA-1-8, 1-Di(isopropyl)-phosphinoyl-octane] | 27 | 1.2 | cool | strong unpleasant taste | ~15 | −3 | + | –
3 | 0 | 0.3 | CCCCP(=O)(C(C)CC)C(C)CC (stereo not drawn) [DAPA-2-4, 1-Di(sec-butyl) phosphinoyl-butane] | 3 | 1 | brief cool | pleasant cool, but transient effect | < 5 | −2.5 | 0 | –
4 | 0 | 0.2 | CCCCCP(=O)(CC(C)C)CC(C)C [DAPA-3-1, 1-di(iso-butyl) phosphinoyl-pentane] | 0 | – | not active | – | – | – | 0 | Onset (min) [1]: not active; EC50 [3]: 24 µM
5 | 0 | 0.9 | CCC(C)P(=O)(CCC(C)C)C(C)CC (stereo not drawn) [DAPA-3-2, 1-Di(sec-butyl) phosphinoyl-3-methyl-butane] | 2 | 1 | brief cool | – | – | – | 0 | EC50 [3]: 4.2 µM
6 | – | – | CC(C)[C@@H]1CC[C@@H](C)C[C@H]1O [Menthol, L-menthol, reference compound] | – | – | – | – | – | – | – | sensory effects / side-effects in an ODT (oropharynx [4]): produced chest discomfort; rank in TRPM8 potency among the 21 compounds tested [3]: 16; average threshold for cooling on the tongue [5]: 0.25 µg
7 | – | – | N=C(N)NC(=O)c1nc(Cl)c(N)nc1N [amiloride, reference compound] | – | – | – | – | – | – | – | agonist or antagonist activity, ASIC3 (ASIC3 (acid-sensing)): active
8 | – | – | O=C1NC(c2cccc([N+](=O)[O-])c2)=CCN1c1ccccc1O [icilin, reference compound] | – | – | – | – | – | – | – | sensory effects / side-effects in an ODT (oropharynx [4]): did not produce cooling in the chest or the desired sensations on the throat; rank in TRPM8 potency among the 21 compounds tested [3]: 4
9 | – | – | CCN(CC)CC(=O)Nc1c(C)cccc1C [lidocaine, reference compound] | – | – | – | – | – | – | – | agonist or antagonist activity, hNav1.7 [6]: active
